Assay results reported in ChEMBL document CHEMBL1759870, “Identification, structural properties and chelating capacity of miltipolone as a broad-spectrum inhibitor to cancer cells” (Eur J Med Chem, 2011).
pIC50: −log10 of the molar value.

What was measured:
HUVEC = assay: Antiproliferative activity against human HUVEC cells after 96 hrs by MTT assay; assay type: cell-based
NCI-N87 = assay: Antiproliferative activity against human NCI-N87 cells after 96 hrs by MTT assay; assay type: functional, cell-based; conditions: NCI-N87, 96 h
HepG2 = assay: Antiproliferative activity against human HepG2 cells after 96 hrs by MTT assay; assay type: functional, cell-based; conditions: HepG2, 96 h
Jurkat = assay: Antiproliferative activity against human Jurkat cells after 96 hrs by MTT assay; assay type: functional, cell-based
HT-1080 = assay: Antiproliferative activity against human HT1080 cells after 96 hrs by MTT assay; assay type: functional, cell-based; conditions: HT-1080, 96 h

Row | pIC50 (HepG2) | pIC50 (Jurkat) | pIC50 (HT-1080) | Structure (SMILES) | pIC50 (HUVEC) | pIC50 (NCI-N87)
1 | 7.72 | 7.43 |  | COc1cccc2c1C(=O)c1c(O)c3c(c(O)c1C2=O)C[C@@](O)(C(=O)CO)C[C@@H]3O[C@H]1C[C@H](N)[C@H](O)[C@H](C)O1 [DOXORUBICIN] | 7.52 | 6.38
2 |  |  | 6.12 | COc1cc([C@@H]2c3cc4c(cc3[C@@H](O[C@@H]3O[C@@H]5CO[C@@H](C)O[C@H]5[C@H](O)[C@H]3O)[C@H]3COC(=O)[C@H]23)OCO4)cc(OC)c1O [ETOPOSIDE] |  | 
